Reference: patent US11987579B2 (Duke University, priority 2018, dated 2024)

Tested on: CCD841Co colonic cells
Experiment: Assessment of oxygen consumption rate (OCR), Seahorse XFp
Assay type: cell-based
Conditions: 1 μM FCCP, cells treated with DMSO control media
Method: Colonic epithelial CCD841Co cells were plated in Seahorse XFp 8-well miniplates at 8000 cells/well and allowed to attach overnight at 37° C. in a 5% CO2 incubator. Polarographic analysis of OCR was performed using Seahorse XF Analyzer (Agilent Technologies, Santa Clara, Calif.) and a Seahorse XFp Cell Mito Stress Test Kit (Agilent Technologies, catalog number 103010-100). […] Data were analyzed by the software Wave (Version 2.3.0.20, Agilent Technologies, Santa Clara, Calif.).

Question: `N#CC(C#N)=NNc1ccc(OC(F)(F)F)cc1` [FCCP] was tested. Which “oxygen consumption rate after control compound addition” value did it give?
Answer: The value was “increases oxygen consumption rate”.
